In patent US12059422B2 (MEI Pharma, Inc., priority 2011, dated 2024):
pIC50: −log10 of the molar value.

Assays:
[1] = molecular target: T1, PI3K beta (Homo sapiens, UniProt P42338); experiment: Luciferase-based luminescence assay (ADP Glo), PI3K beta enzymatic activity; format: biochemical; conditions: for pIC50: inhibition of enzymatic activity, ADP Glo, 25 μM ATP, read-out: IC50 p110β; for α/β ratio: ratio of enzymatic IC50 values, Table 1
T1 construct: purchased Millipore, Billerica, MA, USA
Description: PI3K catalyzes the conversion of phosphatidylinositol-4,5-bisphosphate (PIP2) and ATP to phosphatidylinositol-3,4,5-trisphosphate (PIP3) and ADP. For all assays, the reaction buffer comprised 50 mM HEPES, pH 7.5, 3 mM MgCl2, 1 mM EGTA, 100 mM NaCl, 0.03% CHAPS and 2 mM DTT. Compounds for testing were dissolved and serially diluted in 100% DMSO (total of 10 concentrations), then diluted 1:25 in reaction buffer.
PI3K beta and gamma enzymatic activity was determined by measuring the amount of ADP produced following the kinase reaction using a luciferase-based luminescence assay (ADP Glo®, Promega Corp., Madison, WI, USA). PI3K enzyme solutions were prepared by diluting PI3K beta (Millipore, Billerica, MA, USA) or PI3K gamma (Invitrogen Corp., Carlsbad, CA, USA) in reaction buffer, to 4× the final assay concentration (final concentrations of enzymes were 4.8 nM and 7.6 nM for PI3K beta and PI3K gamma respectively). A substrate solution was prepared by mixing PIP2 and ATP in reaction buffer at 2× the final assay concentration (final concentrations were 50 μM and 25 μM for PIP2 and ATP respectively). 2.5 μL each of the compound and kinase mixtures were added to individual wells of white low volume 384-well assay plates and mixed by shaking. The reactions were started by adding 5 μL of substrate mixture per well and shaking. The assay plates were covered and reactions were allowed to proceed for 1 hour. Then, 5 μL of reaction mix was transferred to another white low volume 384-well plate, and 5 μL of ADP-Glo™ reagent was added. The plates were briefly centrifuged and incubated for 40 minutes, after which 10 μL of kinase detection buffer was added. The plates then were centrifuged briefly, shaken slowly and equilibrated at room temperature for 30 minutes, after which luminescence was measured using a FlexStation plate reader (Molecular Devices, Sunnyvale, CA, USA). IC50 values were determined by curve fitting using Graphpad Prism software (Graphpad Software, La Jolla, CA, USA).

[2] = molecular target: T2, PI3Kβ (Homo sapiens, UniProt P42338); experiment: ELISA assay for PI3Kβ: in-cell ELISA, phosphorylation of AKT (Ser473) in PC-3 cells; format: cell-based; conditions: for pIC50: cellular, pAKT (Ser473), PC-3 cells, LPA stimulation, read-out: IC50 p110β; for α/β ratio: ratio of cellular IC50 values, Table 2
T2 construct: endogenous in cells; host or cells: PC-3 (ATCC #CRL-1435)
Description: Cellular PI3Kβ activity was determined by measuring the phosphorylation of AKT (Ser473) using an in-cell ELISA assay. PC-3 (prostate carcinoma) cells were obtained from ATCC (ATCC #CRL-1435). Growth medium was DMEM (CellGro #CV-10-013-CV) supplemented with 10% fetal bovine serum, 100 IU/mL penicillin, 100 μg/mL streptomycin, and 1×MEM non-essential amino acids. Phosphate buffered saline (PBS) contained 2.7 M NaCl, 54 mM KCl, 86 mM […] (dibasic, anhydrous), 28 mM […] (monobasic, anhydrous), pH 7.2, 10× stimulation mixture contained 50 μM LPA (Cayman #62215) diluted in serum-free DMEM medium (CellGro #CV-10-013-CV). Compounds for testing were dissolved and serially diluted in 100% DMSO (total of 10 concentrations), then diluted in serum-free DMEM to 2× final assay concentration. 2× fixative solution contained 8% formaldehyde (Amresco #M134) diluted in PBS. Permeabilization solution contained PBS supplemented with 0.1% Triton X-100. Blocking buffer was obtained from LiCor (LiCor #927-40000). Wash buffer contained PBS supplemented with 0.1% Tween-20. Primary antibody solution was rabbit anti-pAKT^S473 monoclonal antibody (Cell Signaling #4060) and mouse anti-total S6 (Santa Cruz #74459) diluted 1:500 and 1:2000, respectively, in blocking buffer. Secondary antibody solution was IRDye 800CW-conjugated goat anti-rabbit IgG (LiCor #926-32211) and IRDye 680LT-conjugated goat anti-mouse IgG (LiCor #926-68020) diluted 1:2000 and 1:1000, respectively, in blocking buffer.
PC-3 cells were subcultured in growth medium and seeded into flat, clear bottom, 96-well plates (Corning #3904) at 16000 cells/well, then incubated overnight in a 37° C., 5% CO2 incubator. Growth medium in plates was replaced with 100 μL/well serum-free DMEM and incubated overnight in a 37° C., 5% CO2 incubator. 50 μL/well of fresh serum-free DMEM was added to plates. Compound treatment was performed by adding 50 μL/well of 2× compound mixture to plates and incubating for 2 hrs at 37° C., 5% CO2, after which 11 μL/well of 10× stimulation mixture was added and plates were incubated for 10 min at 37° C., 5% CO2. Fixation was performed by adding 110 μL/well of 2× fixative solution to plates and incubating for 20 min at room temperature. Permeabilization was performed by replacing fixation solution with 150 μL/well permeabilization solution and incubating for 10 min at room temperature. Permeabilization was repeated (for a total of 2 times). Permeabilization solution was replaced with 100 μL/well blocking buffer and plates were incubated for 1 hr at room temperature, after which 100 μL/well of primary antibody solution was added and plates were incubated overnight at 4° C. Plates were washed with wash buffer, after which 100 μL/well of secondary antibody solution was added to the plates and incubated in the dark for 1 hr at room temperature. Plates were washed with wash buffer, followed by awash with PBS. After completely removing PBS, plates were scanned on the Licor Odyssey Imager. Images quantified using Licor Odyssey application software. IC50 values were determined by curve fitting using a Collaborative Drug Discovery database (www.collaborativedrug.com).

T2 sequence (P42338 whole entry): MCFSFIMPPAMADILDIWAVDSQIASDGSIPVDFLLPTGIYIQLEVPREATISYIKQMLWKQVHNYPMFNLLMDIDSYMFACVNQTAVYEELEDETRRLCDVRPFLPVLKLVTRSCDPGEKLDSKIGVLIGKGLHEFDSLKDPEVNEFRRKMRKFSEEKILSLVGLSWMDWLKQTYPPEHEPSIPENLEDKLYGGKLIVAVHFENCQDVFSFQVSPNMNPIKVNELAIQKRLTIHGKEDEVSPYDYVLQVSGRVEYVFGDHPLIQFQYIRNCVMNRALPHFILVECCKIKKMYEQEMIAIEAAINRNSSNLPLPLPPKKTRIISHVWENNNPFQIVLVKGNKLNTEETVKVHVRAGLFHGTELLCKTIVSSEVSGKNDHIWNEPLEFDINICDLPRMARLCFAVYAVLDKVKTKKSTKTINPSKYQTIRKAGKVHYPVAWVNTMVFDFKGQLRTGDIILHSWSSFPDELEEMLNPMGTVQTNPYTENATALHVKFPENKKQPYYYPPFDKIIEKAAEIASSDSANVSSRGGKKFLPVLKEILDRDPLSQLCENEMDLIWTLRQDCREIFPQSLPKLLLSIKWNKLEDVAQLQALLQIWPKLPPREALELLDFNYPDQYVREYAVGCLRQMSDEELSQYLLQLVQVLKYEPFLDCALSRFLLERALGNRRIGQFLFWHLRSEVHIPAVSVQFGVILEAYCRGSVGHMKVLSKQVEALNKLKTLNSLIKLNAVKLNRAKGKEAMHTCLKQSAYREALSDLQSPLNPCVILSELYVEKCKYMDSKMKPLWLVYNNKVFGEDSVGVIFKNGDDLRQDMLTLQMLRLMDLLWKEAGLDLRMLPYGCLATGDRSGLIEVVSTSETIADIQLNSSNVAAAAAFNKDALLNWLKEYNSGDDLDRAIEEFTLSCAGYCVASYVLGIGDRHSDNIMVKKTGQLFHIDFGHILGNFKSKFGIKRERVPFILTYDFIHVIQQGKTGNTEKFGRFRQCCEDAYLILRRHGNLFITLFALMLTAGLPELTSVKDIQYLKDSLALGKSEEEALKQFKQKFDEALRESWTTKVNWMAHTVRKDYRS
T2 sequence (P27986 whole entry partner): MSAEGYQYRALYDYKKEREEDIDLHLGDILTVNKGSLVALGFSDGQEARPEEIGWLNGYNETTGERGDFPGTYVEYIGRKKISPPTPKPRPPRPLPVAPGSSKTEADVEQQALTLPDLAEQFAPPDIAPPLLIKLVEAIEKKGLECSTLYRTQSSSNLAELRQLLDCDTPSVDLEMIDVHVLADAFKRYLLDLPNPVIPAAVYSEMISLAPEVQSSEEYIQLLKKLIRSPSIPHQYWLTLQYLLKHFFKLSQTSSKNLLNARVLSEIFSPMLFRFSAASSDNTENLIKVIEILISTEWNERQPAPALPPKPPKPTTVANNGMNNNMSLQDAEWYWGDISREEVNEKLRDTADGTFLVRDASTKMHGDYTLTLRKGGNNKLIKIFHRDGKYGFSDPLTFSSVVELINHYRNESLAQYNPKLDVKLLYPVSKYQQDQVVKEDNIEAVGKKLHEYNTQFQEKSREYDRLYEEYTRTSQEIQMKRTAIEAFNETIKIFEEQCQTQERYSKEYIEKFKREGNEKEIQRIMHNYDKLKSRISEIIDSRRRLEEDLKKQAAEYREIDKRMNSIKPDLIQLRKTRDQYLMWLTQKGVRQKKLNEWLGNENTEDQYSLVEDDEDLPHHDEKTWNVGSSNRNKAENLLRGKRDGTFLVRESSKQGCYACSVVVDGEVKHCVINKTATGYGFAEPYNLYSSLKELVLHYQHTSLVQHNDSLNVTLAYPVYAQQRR
T1 sequence (P42338 whole entry, species assumed): as the sequence (P42338 whole entry) above
T1 sequence (P27986 whole entry partner, species assumed): as the sequence (P27986 whole entry partner) above

Compound	pIC50 [1]	α/β ratio [1]	pIC50 [2]	α/β ratio [2]
CC(C)(Cc1ccccc1)Nc1nc(N2CCOCC2)nc(-n2c(C(F)F)nc3ccccc32)n1 [Compound A14, 4-(2-(difluoromethyl)-1H-benzo[d]imidazol-1-yl)-N-(2-methyl-1-phenylpropan-2-yl)-6-morpholino-1,3,5-triazin-2-amine]	≥ 7.00	A’	≥ 7.00	B’
CC(C)(Cc1ccccc1F)Nc1nc(N2CCOCC2)nc(-n2c(C(F)F)nc3ccccc32)n1 [Compound A15, 4-(2-(difluoromethyl)-1H-benzo[d]imidazol-1-yl)-N-(1-(2-fluorophenyl)-2-methylpropan-2-yl)-6-morpholino-1,3,5-triazin-2-amine]	6.70 to 7.00	D’	≥ 7.00	C’
CC(C)(Cc1ccccc1Cl)Nc1nc(N2CCOCC2)nc(-n2c(C(F)F)nc3ccccc32)n1 [Compound A16, 4-(2-(difluoromethyl)-1H-benzo[d]imidazol-1-yl)-N-(1-(2-chlorophenyl)-2-methylpropan-2-yl)-6-morpholino-1,3,5-triazin-2-amine]	≥ 7.00	A’	≥ 7.00	B’
Cc1ccccc1CC(C)(C)Nc1nc(N2CCOCC2)nc(-n2c(C(F)F)nc3ccccc32)n1 [Compound A18, 4-(2-(difluoromethyl)-1H-benzo[d]imidazol-1-yl)-N-(2-methyl-1-(o-tolyl)propan-2-yl)-6-morpholino-1,3,5-triazin-2-amine]	≥ 7.00	A’	≥ 7.00	C’
COc1ccccc1CC(C)(C)Nc1nc(N2CCOCC2)nc(-n2c(C(F)F)nc3ccccc32)n1 [Compound A19, 4-(2-(difluoromethyl)-1H-benzo[d]imidazol-1-yl)-N-(1-(2-methoxyphenyl)-2-methylpropan-2-yl)-6-morpholino-1,3,5-triazin-2-amine]	6.30 to 6.70	D’	≥ 7.00	
COc1cccc(CC(C)(C)Nc2nc(N3CCOCC3)nc(-n3c(C(F)F)nc4ccccc43)n2)c1 [Compound A21, 4-(2-(difluoromethyl)-1H-benzo[d]imidazol-1-yl)-N-(1-(3-methoxyphenyl)-2-methylpropan-2-yl)-6-morpholino-1,3,5-triazin-2-amine]	6.70 to 7.00	C’	6.70 to 7.00	A’
CC(C)(Cc1ccc(F)cc1)Nc1nc(N2CCOCC2)nc(-n2c(C(F)F)nc3ccccc32)n1 [Compound A22, 4-(2-(difluoromethyl)-1H-benzo[d]imidazol-1-yl)-N-(1-(4-fluorophenyl)-2-methylpropan-2-yl)-6-morpholino-1,3,5-triazin-2-amine]	6.70 to 7.00	C’	≥ 7.00	C’
CC(C)(Cc1cccc2ccccc12)Nc1nc(N2CCOCC2)nc(-n2c(C(F)F)nc3ccccc32)n1 [Compound A27, 4-(2-(difluoromethyl)-1H-benzo[d]imidazol-1-yl)-N-(2-methyl-1-(naphthalen-1-yl)propan-2-yl)-6-morpholino-1,3,5-triazin-2-amine]	≥ 7.00	B’	≥ 7.00	
CC(C)(Cc1ccccc1-c1ccncc1)Nc1nc(N2CCOCC2)nc(-n2c(C(F)F)nc3ccccc32)n1 [Compound A33, 4-(2-(difluoromethyl)-1H-benzo[d]imidazol-1-yl)-N-(2-methyl-1-(2-(pyridin-4-yl)phenyl)propan-2-yl)-6-morpholino-1,3,5-triazin-2-amine]	≥ 7.00	B’	≥ 7.00	
CN1CCC(c2ccccc2CC(C)(C)Nc2nc(N3CCOCC3)nc(-n3c(C(F)F)nc4ccccc43)n2)CC1 [Compound A35, 4-(2-(difluoromethyl)-1H-benzo[d]imidazol-1-yl)-N-(2-methyl-1-(2-(1-methylpiperidin-4-yl)phenyl)propan-2-yl)-6-morpholino-1,3,5-triazin-2-amine]	6.30 to 6.70	B’	≥ 7.00	A’
CC(C)(Cc1cccc(F)c1)Nc1nc(N2CCOCC2)nc(-n2c(C(F)F)nc3ccccc32)n1 [Compound A39, 4-(2-(difluoromethyl)-1H-benzo[d]imidazol-1-yl)-N-(1-(3-fluorophenyl)-2-methylpropan-2-yl)-6-morpholino-1,3,5-triazin-2-amine]	≥ 7.00	A’	≥ 7.00	A’
CC(C)(Cc1ccccc1-c1cccnc1)Nc1nc(N2CCOCC2)nc(-n2c(C(F)F)nc3ccccc32)n1 [Compound A40, 4-(2-(difluoromethyl)-1H-benzo[d]imidazol-1-yl)-N-(2-methyl-1-(2-(pyridin-3-yl)phenyl)propan-2-yl)-6-morpholino-1,3,5-triazin-2-amine]	≥ 7.00	B’	≥ 7.00	A’
COc1cc(-c2ccccc2CC(C)(C)Nc2nc(N3CCOCC3)nc(-n3c(C(F)F)nc4ccccc43)n2)ccn1 [Compound A41, 4-(2-(difluoromethyl)-1H-benzo[d]imidazol-1-yl)-N-(1-(2-(2-methoxypyridin-4-yl)phenyl)-2-methylpropan-2-yl)-6-morpholino-1,3,5-triazin-2-amine]	< 6.30	D’	6.70 to 7.00	B’
Cc1cc(-c2ccccc2CC(C)(C)Nc2nc(N3CCOCC3)nc(-n3c(C(F)F)nc4ccccc43)n2)ccn1 [Compound A43, 4-(2-(difluoromethyl)-1H-benzo[d]imidazol-1-yl)-N-(2-methyl-1-(2-(2-methylpyridin-4-yl)phenyl)propan-2-yl)-6-morpholino-1,3,5-triazin-2-amine]	≥ 7.00	A’	≥ 7.00	C’
CN1CCC(c2ccccc2CC(C)(C)Nc2nc(N3CCOCC3)nc(-n3c(C(F)F)nc4ccccc43)n2)C1 (stereo not shown) [Compound A75, 4-(2-(difluoromethyl)-1H-benzo[d]imidazol-1-yl)-N-(2-methyl-1-(2-(1-methylpyrrolidin-3-yl)phenyl)propan-2-yl)-6-morpholino-1,3,5-triazin-2-amine]			≥ 7.00	A’
